Laboratory results from ChEMBL document CHEMBL1137986, “Multidrug resistance reversal activity of permethyl ningalin B amide derivatives” (Bioorg Med Chem Lett, 2004).

Legend:
HCT-116 [1] = experiment: Multi drug resistance reversal in HCT116/VM46 cell line treated with Doxorubicin; type: functional, Homo sapiens
HCT-116 [2] = experiment: Multi drug resistance reversal in HCT116/VM46 cell line treated with Vinblastine; type: functional, Homo sapiens
HCT-116 [3] = experiment: inhibitory activity of compound against Multidrug resistance HCT116/VM46 cell line treated with Doxorubicin; type: functional, cell-based; conditions: Homo sapiens
HCT-116 [4] = experiment: Intrinsic cytotoxic activity against wild type HCT116 cell line; type: functional, cell-based; conditions: Homo sapiens
HCT-116 [5] = experiment: inhibitory activity of compound against Multidrug resistant HCT116/VM46 cell line treated with Vinblastine; type: functional, cell-based; conditions: Homo sapiens
HCT-116 [6] = experiment: Intrinsic cytotoxic activity against Multidrug resistant HCT116/VM46 cell line; type: functional, cell-based; conditions: Homo sapiens
HCT-116 [7] = experiment: inhibitory activity of compound against multidrug resistance HCT116/VM46 cell line treated with Doxorubicin; type: functional, cell-based; conditions: Homo sapiens
HCT-116 [8] = experiment: inhibitory activity of compound against multidrug resistant HCT116/VM46 cell line treated with Vinblastine; type: functional, cell-based; conditions: Homo sapiens
HCT-116 [9] = experiment: Intrinsic cytotoxic activity against multidrug resistant HCT116/VM46 cell line; type: functional, cell-based; conditions: Homo sapiens
HCT-116 [10] = experiment: inhibitory activity against Multidrug resistant HCT116/VM46 cell line treated with Vinblastine at a compound concentration 7.5 uM; type: functional, cell-based; conditions: Homo sapiens
HCT-116 [11] = experiment: Multi drug resistance reversal in HCT116/VM46 cell line treated with Doxorubicin at a compound concentration 7.5 uM; type: functional, Homo sapiens
HCT-116 [12] = experiment: Multi drug resistance reversal in HCT116/VM46 cell line treated with Vinblastine at a compound concentration 7.5 uM; type: functional, Homo sapiens
HCT-116 [13] = experiment: inhibitory activity of compound against Multidrug resistant HCT116/VM46 cell line treated with Doxorubicin at a compound concentration 7.5 uM; type: functional, cell-based; conditions: Homo sapiens

Compound | Reversion (HCT-116 [1]) | Reversion (HCT-116 [2]) | IC50 (HCT-116 [3]) | IC50 (HCT-116 [4]) | IC50 (HCT-116 [5]) | IC50 (HCT-116 [6]) | IC50 (HCT-116 [7]) | IC50 (HCT-116 [8]) | IC50 (HCT-116 [9]) | IC50 (HCT-116 [10]) | Reversion (HCT-116 [11]) | Reversion (HCT-116 [12]) | IC50 (HCT-116 [13])
COc1ccc(CCn2c(C(=O)NNCCc3cccs3)c(-c3ccc(OC)c(OC)c3)c3c4cc(OC)c(OC)cc4oc(=O)c32)cc1OC | 100% | 100% | 0.1 µM | > 100 µM | 0.004 µM | > 100 µM |  |  |  |  |  |  | 
COc1ccc(CCN(C)CCCC(C#N)(c2ccc(OC)c(OC)c2)C(C)C)cc1OC (stereo not drawn) | 20% | 10% | 0.5 µM |  | 0.02 µM |  |  |  |  |  |  |  | 
COc1ccc(CCn2c(C(=O)NNCCCCCCSC(C)=O)c(-c3ccc(OC)c(OC)c3)c3c4cc(OC)c(OC)cc4oc(=O)c32)cc1OC | 50% | 25% | 0.2 µM | 20 µM | 0.01 µM | 35 µM |  |  |  |  |  |  | 
COCCN(CCOC)NC(=O)c1c(-c2ccc(OC)c(OC)c2)c2c3cc(OC)c(OC)cc3oc(=O)c2n1CCc1ccc(OC)c(OC)c1 | 50% | 45% | 0.15 µM | 25 µM | 0.009 µM | 15 µM |  |  |  |  |  |  | 
COc1cccc(CCNNC(=O)c2c(-c3ccc(OC)c(OC)c3)c3c4cc(OC)c(OC)cc4oc(=O)c3n2CCc2ccc(OC)c(OC)c2)c1 | 100% | 200% | 0.1 µM | 25 µM | 0.002 µM | 5 µM |  |  |  |  |  |  | 
COc1ccc(CCn2c(C(=O)NNCCc3ccc(O)cc3)c(-c3ccc(OC)c(OC)c3)c3c4cc(OC)c(OC)cc4oc(=O)c32)cc1OC | 55% | 25% | 0.18 µM | 15 µM | 0.01 µM | 10 µM |  |  |  |  |  |  | 
COc1ccc(C2CC2NNC(=O)c2c(-c3ccc(OC)c(OC)c3)c3c4cc(OC)c(OC)cc4oc(=O)c3n2CCc2ccc(OC)c(OC)c2)cc1 (stereo not drawn) | 100% | 100% |  | > 100 µM |  |  | 0.1 µM | 0.004 µM | > 100 µM |  |  |  | 
COC(=O)[C@H](CCCNNC(=O)c1c(-c2ccc(OC)c(OC)c2)c2c3cc(OC)c(OC)cc3oc(=O)c2n1CCc1ccc(OC)c(OC)c1)NC(=O)OCc1ccccc1 | 100% | 80% | 0.1 µM | 45 µM | 0.005 µM | 40 µM |  |  |  |  |  |  | 
COc1ccc(CCn2c(C(=O)N(C)C)c(-c3ccc(OC)c(OC)c3)c3c4cc(OC)c(OC)cc4oc(=O)c32)cc1OC | 100% | 100% | 0.1 µM | 25 µM | 0.002 µM | 20 µM |  |  |  | 0.0002 µM | 1000% | 1000% | 0.01 µM
COC(=O)c1c(-c2ccc(OC)c(OC)c2)c2c3cc(OC)c(OC)cc3oc(=O)c2n1CCc1ccc(OC)c(OC)c1 |  | 100% |  |  | 0.002 µM |  |  |  |  |  |  |  | 
COc1ccc(CCNNC(=O)c2c(-c3ccc(OC)c(OC)c3)c3c4cc(OC)c(OC)cc4oc(=O)c3n2CCc2ccc(OC)c(OC)c2)cc1 | 167% | 200% | 0.06 µM | 20 µM | 0.002 µM | 10 µM |  |  |  |  |  |  | 
COc1ccc(CCNNC(=O)c2c(-c3ccc(OC)c(OC)c3)c3c4cc(OC)c(OC)cc4oc(=O)c3n2CCc2ccc(OC)c(OC)c2)cc1OC | 100% | 100% | 0.1 µM | 5 µM | 0.004 µM | 5 µM |  |  |  |  |  |  | 
COc1ccc(CCn2c(C(=O)NN[C@@H](C)C(=O)OC(C)(C)C)c(-c3ccc(OC)c(OC)c3)c3c4cc(OC)c(OC)cc4oc(=O)c32)cc1OC | 55% | 50% | 0.18 µM | 7 µM | 0.008 µM | 4 µM |  |  |  |  |  |  | 
COc1ccc(CCn2c(C(=O)NNCCc3c[nH]c4ccccc34)c(-c3ccc(OC)c(OC)c3)c3c4cc(OC)c(OC)cc4oc(=O)c32)cc1OC | 100% | 100% | 0.1 µM | > 100 µM | 0.004 µM | > 100 µM |  |  |  |  |  |  | 
COc1ccc(CCn2c(C(=O)NNCCc3ccc(F)cc3)c(-c3ccc(OC)c(OC)c3)c3c4cc(OC)c(OC)cc4oc(=O)c32)cc1OC | 100% | 100% | 0.1 µM | 30 µM | 0.004 µM | 20 µM |  |  |  |  |  |  | 
CC[C@]1(O)C[C@@H]2CN(CCc3c([nH]c4ccccc34)[C@@](C(=O)OC)(c3cc4c(cc3OC)N(C)[C@H]3[C@@](O)(C(=O)OC)[C@H](OC(C)=O)[C@]5(CC)C=CCN6CC[C@]43[C@@H]65)C2)C1 [VINBLASTINE] |  |  |  | 0.004 µM |  |  |  |  |  |  |  |  | 
COc1ccc(CCn2c(C(=O)NCCCCCCNC(=O)c3c(-c4ccc(OC)c(OC)c4)c4c5cc(OC)c(OC)cc5oc(=O)c4n3CCc3ccc(OC)c(OC)c3)c(-c3ccc(OC)c(OC)c3)c3c4cc(OC)c(OC)cc4oc(=O)c32)cc1OC | 20% | 15% | 0.45 µM | > 100 µM | 0.03 µM | > 100 µM |  |  |  |  |  |  | 
COc1ccc(CCn2c(C(=O)NN3CCC4(CC3)OCCO4)c(-c3ccc(OC)c(OC)c3)c3c4cc(OC)c(OC)cc4oc(=O)c32)cc1OC | 100% | 67% | 0.1 µM | 15 µM | 0.006 µM | 10 µM |  |  |  |  |  |  | 
COc1ccc(CCn2c(C(=O)NNC(c3ccccc3)c3ccccc3)c(-c3ccc(OC)c(OC)c3)c3c4cc(OC)c(OC)cc4oc(=O)c32)cc1OC | 80% | 100% | 0.12 µM | 25 µM | 0.004 µM | 15 µM |  |  |  |  |  |  | 
COc1ccc(CCn2c(C(=O)NCCNC(=O)c3c(-c4ccc(OC)c(OC)c4)c4c5cc(OC)c(OC)cc5oc(=O)c4n3CCc3ccc(OC)c(OC)c3)c(-c3ccc(OC)c(OC)c3)c3c4cc(OC)c(OC)cc4oc(=O)c32)cc1OC | 10% | 10% | 0.75 µM | > 100 µM | 0.05 µM | > 100 µM |  |  |  |  |  |  | 
COc1ccc(OC)c(CCNNC(=O)c2c(-c3ccc(OC)c(OC)c3)c3c4cc(OC)c(OC)cc4oc(=O)c3n2CCc2ccc(OC)c(OC)c2)c1 | 100% | 200% | 0.1 µM | 25 µM | 0.002 µM | 10 µM |  |  |  |  |  |  | 
COc1ccc(CNNC(=O)c2c(-c3ccc(OC)c(OC)c3)c3c4cc(OC)c(OC)cc4oc(=O)c3n2CCc2ccc(OC)c(OC)c2)cc1 | 80% | 100% | 0.12 µM | 40 µM | 0.004 µM | 30 µM |  |  |  |  |  |  | 
COc1ccc(CCn2cc(-c3ccc(OC)c(OC)c3)c3c4cc(OC)c(OC)cc4oc(=O)c32)cc1OC |  | 100% |  |  | 0.002 µM |  |  |  |  |  |  |  | 
COc1ccc(CCn2c(C(=O)NN)c(-c3ccc(OC)c(OC)c3)c3c4cc(OC)c(OC)cc4oc(=O)c32)cc1OC | 40% | 60% | 0.24 µM | > 100 µM | 0.007 µM | > 100 µM |  |  |  |  |  |  | 
